Measurements as given in patent US20230234941A1, “Salts of Compound and Pharmaceutical Compositions Containing the Same” (Shenzhen Forward Pharmaceuticals Co., Limited., priority 2020, published 2023).
Values after ≈ are worked out from the molar mass of the structure shown. “Also recorded” adds a separate entry of the source.

Key:
[1] = Solid storage stability test; type: physicochemical; conditions: for Original morphology / Original purity: original solid before storage; for chemical and physical stability after storage (summary): solid/25° C./60% RH/open/1 week and/or solid/60° C./closed container/1 week
[2] = Solid solubility test (2 h and 24 h); type: physicochemical; conditions: for XRPD measured at 2 h: state of sample / solid fraction
[3] = Chemical and physical stability of the salts at the end of the preparation; type: physicochemical
Source text: It is crucial for drug development whether the salts obtained as above have chemical and physical stability at the end of the preparation. The chemical and physical stability of the salts at the end of the preparation includes: […]

[4] = system: EGFR activating mutation (such as exon 19 deletion activating mutation, L858R activating mutation, T790M drug resistance mutation and exon 20 insertion …); conditions: disclosed in CN105461695B; cited from earlier work
[5] = Test BS1: solid/25° C./60% RH/open/1 week
[6] = listed as amorphous 1 eq. maleate salt
[7] = solid/60° C./closed container/1 week (Test BS1)
[8] = FaSSIF-V1 (pH 6.5) (Test ES4, partly printed ES1)
[9] = FaSSIF-V1 (pH 6.5) (Test ES4, partly printed ES1), 37° C., based on free base
[10] = Test ES1: 0.1N HCl solution (pH 1.0)
[11] = Test ES1: 0.1N HCl solution (pH 1.0), 37° C., based on free base
[12] = Test ES2: 50 mM phosphate buffer (pH 4.5)
[13] = Test ES2: 50 mM phosphate buffer (pH 4.5), 37° C., based on free base
[14] = Test ES3: FeSSIF-V1 (pH 5.0), 37° C., based on free base
[15] = listed as 1 eq. hydrobromide salt
[16] = listed as crystalline 1 eq. hydrobromide salt

SMILES | Purity [1, 5] [%] | Original morphology [1] | Original purity [1] [%] | Purity [1, 7] [%] | pH measured at 2 h [2, 8] | Solubility measured at 2 h [2, 9] [µg/mL] | pH measured at 2 h [2, 10] | Solubility measured at 2 h [2, 11] [µg/mL] | XRPD measured at 2 h [2, 10] | pH measured at 2 h [2, 12] | Solubility measured at 2 h [2, 13] [µg/mL] | XRPD measured at 2 h [2, 12] | pH measured at 2 h ([2]; Test ES3: FeSSIF-V1 (pH 5.0)) | Solubility measured at 2 h [2, 14] [µg/mL] | XRPD measured at 2 h ([2]; Test ES3: FeSSIF-V1 (pH 5.0)) | pH measured at 2 h ([2]; Test ES5: SGF (pH 2.0)) | XRPD measured at 2 h ([2]; Test ES5: SGF (pH 2.0)) | other results
C=CC(=O)Nc1cc(Nc2ncnc(-c3cn(C)c4ccccc34)n2)c(OC)cc1N(C)CCN(C)C [Example 9] | 99.7 | amorphous | 99.8 | 98.2 | (6.1) | >2000 | (0.8) | >2000 | clear solution | (4.3) | >2000 | clear solution | (4.8) | >2000 | clear solution | (2.0) | clear solution | chemical and physical stability after storage (summary) ([1]; listed as 1 eq. maleate salt): chemically unstable; also recorded: physically unstable; chemical and physical stability after storage (summary) [1, 6]: chemically unstable; also recorded: physically unstable; physical and chemical stability under storage (in words) ([1]; solid/25° C./60% RH/open/1 week, listed as amorphous 1 eq. maleate salt): slight color change and showed a certain hygroscopicity (agglomeration); decrease in purity ([1]; solid/60° C./closed container/1 week): about 2%; physical and chemical stability under storage (in words) ([1]; solid/60° C./closed container/1 week, listed as amorphous 1 eq. maleate salt): transformed from amorphous to a low crystallinity; XRPD measured at 2 h [2, 8]: clear solution; solubility at 2 h ([2]; SGF, 37 °C, pH 2, simulated gastric fluid, thermodynamic from solid, Test ES5: SGF (pH 2.0), 37° C., based on free base, read-out: Solubility measured at 2 h): > 2000 µg/mL; chemical and physical stability at the end of the preparation ([3]; listed as 1 eq. maleate salt): chemically and physically stable; chemical and physical stability at the end of the preparation [3, 6]: chemically and physically stable
C=CC(=O)Nc1cc(Nc2ncnc(-c3cn(C)c4ccccc34)n2)c(OC)cc1N(C)CCN(C)C [Example 10] | 99.9 | crystalline | 99.9 | 99.9 | (6.4) | 700 (≈ 1.4 mM) | (0.8) | >2000 | clear solution | (4.4) | >2000 | clear solution | (4.8) | >2000 | clear solution | (1.9) | clear solution | chemical and physical stability after storage (summary) [1, 15]: chemically and physically stable; chemical and physical stability after storage (summary) [1, 16]: chemically and physically stable; physical and chemical stability under storage (in words) ([1]; solid/25° C./60% RH/open/1 week, listed as crystalline 1 eq. hydrobromide salt): good physical and chemical stability; physical and chemical stability under storage (in words) ([1]; solid/60° C./closed container/1 week, listed as crystalline 1 eq. hydrobromide salt): good physical and chemical stability; Solubility measured at 2 h ([2]; Test ES5: SGF (pH 2.0), 37° C., based on free base): >2000 µg/mL; chemical and physical stability at the end of the preparation [3, 15]: chemically and physically stable; chemical and physical stability at the end of the preparation [3, 16]: chemically and physically stable
C=CC(=O)Nc1cc(Nc2ncnc(-c3cn(C)c4ccccc34)n2)c(OC)cc1N(C)CCN(C)C [compound of formula (I)] |  |  |  |  |  |  |  |  |  |  |  |  |  |  |  |  |  | inhibitory activity against EGFR activating mutation compared with wild-type EGFR (WT EGFR) [4]: significantly higher
